Data from US20120076808A1, “COMBINED ANTIGEN AND DNA VACCINE FOR PREVENTING AND TREATING AUTOIMMUNE DISEASES” (CHINA AGRICULTURAL UNIVERSITY, priority 2010, published 2012).

Tests used:
JAWS II cells = assay: Endocytosis inhibitor pre-treatment of JAWS II cells fed pOVA323+OVA323, CD40 staining; assay type: cell-based, mouse; settings: pre-treatment before pOVA323+OVA323
Method: FIG. 24. DCs co-take up DNA and protein immunogens via clathrin- and caveolae-mediated endocytosis. A) JAWS II cells were pre-treated with PBS, MDC (50 μM), or filipin (10 μg/ml) for 30 min at 37° C. and then fed Cy5-pOVA323+FITC-OVA323 or Cy5-pVAX+FITC-OVA323 for 24 h. The cells were stained with anti-CD40-PE and analyzed by flow cytometry. Shown is CD40 staining of Cy5/FITC double-positive cells (gated). B) A summary of the experimental results are shown.
FIG. 30. Effect of amiloride on the expression of CD40 in JAWS II cells. JAWS II cells were pre-treated with amiloride (5 mM) for 10 min at 37° C. and then co-treated with Cy5-pOVA323+FITC-OVA323 or Cy5-pVAX+FITC-OVA323 for 24 h. The cells were stained with anti-CD40-PE and analyzed by flow cytometry.
The JAWS II mouse DC line was purchased from the American Type Culture Collection (ATCC, Manassas, Va., USA) and maintained in complete growth medium containing minimum essential medium (MEM) alpha with ribonucleosides, deoxyribonucleosides, 4 mM L-glutamine, and 1 mM sodium pyruvate (Invitrogen Inc., Carlsbad, Calif., USA), and supplemented with 20% fetal bovine serum (ATCC) and 5 ng/ml murine recombinant GM-CSF (R&D Systems, Inc., Minneapolis, Minn., USA). The cells were incubated at 37° C. with 5% CO2 and treated with different antigens (10 μg/ml) such as pVAX, pOVA, OVA, pOVA323 and OVA323 for 24 h. […]

[1] = test system: BALB/c mice with OVA-induced inflammatory bronchitis; assay: OVA-induced inflammatory bronchitis, adoptive transfer of DCregs; assay type: in vivo; settings: DCs pretreated with filipin
Method: FIG. 28. Co-immunization-induced DCregs ameliorate inflammatory bronchitis. A) Experimental design: Balb/c mice were injected with 0.1 ml of 1 mg/ml OVA/alum complexes in PBS on days 0 and 7 by i.p. and subsequently challenged with 100 μg OVA intra-tracheally on days 14, 16 and 18 to establish the “model”. Control mice were received with PBS intra-tracheally on days 14, 16 and 18 and designated as the “shame” control. On day 21, 5×10^5 of CD11c+ cells from syngeneic donor mice were transferred into model mice once daily for 3 consecutive days by i.v. (n=3 per group). Prior to the transfer, donor CD11c+ cells purified from spleen of naïve mice were pre-treated with or without filipin and subsequently co-treated with pOVA+OVA or pVAX+OVA for 24 h. On day 14 after the final transfer, serum samples were taken to analyze the levels of IgE or cytokine productions. Sections of lung tissues were made to evaluate disease severity. B) the level of antigen specific IgE was analyzed by ELISA following adoptive transfer of indicated DCs. […] D) Lung sections were examined by H&E staining and recorded under a light microscope at ×100 and ×200 magnification. […]
Lung or ovary were fixed in 4% paraformaldehyde or Bouin's solution and embedded in paraffin blocks. […] Histopathology of lung or ovary was evaluated under a light microscope. […]

CCCCC[C@@H](O)[C@H]1C(=O)O[C@H](C)[C@@H](O)/C=C/C=C/C=C/C=C/C=C(\C)[C@@H](O)C[C@H](O)C[C@H](O)C[C@H](O)C[C@H](O)C[C@H](O)C[C@@H]1O [filipin]
effect on CD40low phenotype / CD40 expression (JAWS II cells): could prevent the CD40^1′ phenotype, filipin was more effective than MDC
anti-inflammatory effect of pOVA+OVA treated DCs after inhibitor pre-treatment [1]: absent
